Values quoted from earlier work, collected in patent publication US5723589A, “Carbohydrate conjugated bio-active compounds” (ICN Pharmaceuticals, priority 1995, dated 1998).

Key:
blood brain barrier = conditions: concentrated solutions infused into the carotid arteries; cited from earlier work
GLUT-1 in cancer cells = conditions: inhibition of GLUT-1 functioning by binding; cited from earlier work
[1] = test system: GLUT-1 in normal 3T3 fibroblasts; conditions: Endocrinology 1990, 126, 2778; cited from earlier work

## OC[C@@H](O)[C@@H](O)[C@H](O)[C@H](O)CO [mannitol]
Blood brain barrier
  disruption of the blood brain barrier: disrupt the blood brain barrier long enough to allow methotrexate and other potent chemotherapeutic agents to penetrate brain tumors

## Cc1ccc(C(=O)Nc2ccc(S(=O)(=O)O)c3cc(S(=O)(=O)O)cc(S(=O)(=O)O)c23)cc1NC(=O)c1cccc(NC(=O)Nc2cccc(C(=O)Nc3cc(C(=O)Nc4ccc(S(=O)(=O)O)c5cc(S(=O)(=O)O)cc(S(=O)(=O)O)c45)ccc3C)c2)c1 [suramin]
GLUT-1 in cancer cells
  glucose uptake and growth rate of the treated cells: significantly limits glucose uptake and the growth rate of the treated cells

## Sodium vanadate
[1]
  GLUT-1 expression: able to induce GLUT-1 expression
  extension of the half-life of GLUT-1 mRNA: 2-3 times
